Measurements published in ChEMBL document CHEMBL3885861, “Open TG-GATES”.

Organism: Rattus norvegicus
Test: Open TG-GATES - Regimen: Daily Repeat
Type: toxicity, organism-based, Sprague-Dawley
Parameters: regimen Daily Repeat, gender Male, age 6 weeks
Conditions: in vivo, po, 15 mg/kg, route gavage, dose level Low; for APTT / Bas / Eos / Fbg / Hb / Ht / Lym / MCHC / MCV / Mono / Neu / PT / Plat / RBC / Ret / WBC: tissue Blood; for KIDNEY_L / KIDNEY_R / KIDNEY_TOTAL: tissue Kidney; for LIVER: tissue Liver; for ALP / ALT / AST / BUN / CRE / Ca / Cl / DBIL / GLC / IP / K / LDH / Na / PL / RALB / TBIL / TC / TG / TP / gamma-GTP: tissue Plasma

## C1CCC(C(CC2CCCCN2)C2CCCCC2)CC1 (centres undefined) [PERHEXILINE]
72 h, time 3 day
  TERMINAL_BW: 221.1 g
  APTT: 22 s
  Bas: 0%
  Eos: 0.8%
  Fbg: 313.4 mg/dL
  Hb: 13.4 g/dL
  Ht: 39.5%
  Lym: 82.4%
  MCHC: 33.7%
  MCV: 62.1 fL
  Mono: 1.6%
  Neu: 14.2%
  PT: 16.6 s
  Plat: 127.5 x10_4/uL
  RBC: 637.8 x10_4/ul
  Ret: 5.8%
  WBC: 90.6 x10_2/uL
  KIDNEY_L: 1 g
  KIDNEY_R: 1 g
  KIDNEY_TOTAL: 2 g
  LIVER: 10.6 g
  ALP: 1691.8 IU/L
  ALT: 40.6 IU/L
  AST: 69.8 IU/L
  BUN: 16.2 mg/dL
  CRE: 0.2 mg/dL
  Ca: 10.8 mg/dL
  Cl: 106.4 meq/L
  DBIL: 0 mg/dL
  GLC: 186.2 mg/dL
  IP: 6.6 mg/dL
  K: 4.2 meq/L
  LDH: 253.2 IU/L
  Na: 142.6 meq/L
  PL: 150 mg/dL
  RALB: 3.1 g/dL
  TBIL: 0.008 mg/dL
  TC: 74 mg/dL
  TG: 131 mg/dL
  TP: 5.7 g/dL
  gamma-GTP: 1 IU/L
[…], time 7 day
  TERMINAL_BW: 248.3 g
  APTT: 22.8 s
  Bas: 0%
  Eos: 1%
  Fbg: 313.2 mg/dL
  Hb: 13.6 g/dL
  Ht: 39.9%
  Lym: 79.4%
  MCHC: 34%
  MCV: 62.5 fL
  Mono: 2.2%
  Neu: 16.6%
  PT: 16 s
  Plat: 115.3 x10_4/uL
  RBC: 639.4 x10_4/ul
  Ret: 5.3%
  WBC: 110.7 x10_2/uL
  KIDNEY_L: 1.1 g
  KIDNEY_R: 1.1 g
  KIDNEY_TOTAL: 2.1 g
  LIVER: 12 g
  ALP: 1491.4 IU/L
  ALT: 41 IU/L
  AST: 70.8 IU/L
  BUN: 17 mg/dL
  CRE: 0.2 mg/dL
  Ca: 10.3 mg/dL
  Cl: 106.8 meq/L
  DBIL: 0 mg/dL
  GLC: 199.8 mg/dL
  IP: 7.2 mg/dL
  K: 4.2 meq/L
  LDH: 213.8 IU/L
  Na: 143.6 meq/L
  PL: 157.8 mg/dL
  RALB: 3 g/dL
  TBIL: 0.004 mg/dL
  TC: 75 mg/dL
  TG: 162.4 mg/dL
  TP: 5.7 g/dL
  gamma-GTP: 1.6 IU/L
[…], time 14 day
  TERMINAL_BW: 309.8 g
  APTT: 23.1 s
  Bas: 0%
  Eos: 0.4%
  Fbg: 320.2 mg/dL
  Hb: 14.9 g/dL
  Ht: 42.6%
  Lym: 82.8%
  MCHC: 35%
  MCV: 60.8 fL
  Mono: 1.6%
  Neu: 13.8%
  PT: 16.1 s
  Plat: 112 x10_4/uL
  RBC: 702.2 x10_4/ul
  Ret: 3.7%
  WBC: 125.7 x10_2/uL
  KIDNEY_L: 1.2 g
  KIDNEY_R: 1.2 g
  KIDNEY_TOTAL: 2.4 g
  LIVER: 13 g
  ALP: 1618.8 IU/L
  ALT: 41.2 IU/L
  AST: 73.8 IU/L
  BUN: 18.6 mg/dL
  CRE: 0.2 mg/dL
  Ca: 10.5 mg/dL
  Cl: 107 meq/L
  DBIL: 0 mg/dL
  GLC: 191.8 mg/dL
  IP: 6.1 mg/dL
  K: 4.1 meq/L
  LDH: 207.4 IU/L
  Na: 143.8 meq/L
  PL: 145.4 mg/dL
  RALB: 3.2 g/dL
  TBIL: 0.004 mg/dL
  TC: 65.4 mg/dL
  TG: 177.2 mg/dL
  TP: 6 g/dL
  gamma-GTP: 1.6 IU/L
[…], time 28 day
  TERMINAL_BW: 362.5 g
  APTT: 22.8 s
  Bas: 0%
  Eos: 1%
  Fbg: 313.2 mg/dL
  Hb: 13.6 g/dL
  Ht: 39.9%
  Lym: 79.4%
  MCHC: 34%
  MCV: 62.5 fL
  Mono: 2.2%
  Neu: 16.6%
  PT: 16 s
  Plat: 115.3 x10_4/uL
  RBC: 639.4 x10_4/ul
  Ret: 5.3%
  WBC: 110.7 x10_2/uL
  KIDNEY_L: 1.3 g
  KIDNEY_R: 1.3 g
  KIDNEY_TOTAL: 2.6 g
  LIVER: 14.5 g
  ALP: 1153.2 IU/L
  ALT: 39.4 IU/L
  AST: 63.6 IU/L
  BUN: 18.2 mg/dL
  CRE: 0.2 mg/dL
  Ca: 10.3 mg/dL
  Cl: 108 meq/L
  DBIL: 0.002 mg/dL
  GLC: 191 mg/dL
  IP: 6.4 mg/dL
  K: 4 meq/L
  LDH: 156 IU/L
  Na: 144.4 meq/L
  PL: 138.6 mg/dL
  RALB: 3.2 g/dL
  TBIL: 0.012 mg/dL
  TC: 63.2 mg/dL
  TG: 130.2 mg/dL
  TP: 6.2 g/dL
  gamma-GTP: 1.2 IU/L
